Measured values published in US20240384350A1, “METHODS OF TREATING CANCER WITH KINASE INHIBITORS” (BOARD OF REGENTS, THE UNIVERSITY OF TEXAS SYSTEM, priority 2021, published 2024).

Assays:
Assay in all cases: Ba/F3 drug screening, Cell Titer Glo, IC50 Mut/WT
Type in all cases: cell-based
EGFR L833F = molecular target: T1, EGFR L833F (Homo sapiens, UniProt P00533, L833F); details: Classical-Like, 72 hours
T1 construct: expressed in transfected cells; host or cells: Ba/F3 cells, retroviral pBabe-Puro vector

EGFR L858R/V834L = molecular target: T2, EGFR L858R/V834L (Homo sapiens, UniProt P00533, L858R/V834L); details: Classical-Like, 72 hours
T2 construct: expressed in transfected cells; host or cells: Ba/F3 cells, retroviral pBabe-Puro vector
Description: (§1) Data represent the ratio of the IC50 value for a given TKI for cells with a classical-like EGFR mutation to the IC50 value for cells with wildtype EGFR.
(§2) Ba/F3 cell generation, drug screening, and IC50 approximations. Ba/F3 cells were obtained as a gift from Dr. Gordon Mills (MD Anderson Cancer Center), and maintained in RPMI (Sigma) containing 10% FBS, 1% penicillin/streptomycin, and 10 ng/ml recombinant mIL-3 (R&D Biosystems). To establish stable Ba/F3 cell lines, Ba/F3 cells were transduced with retroviruses containing mutant EGFR plasmids for 12-24 hours.
(§3) After 48-72 hours of transduction, 2 μg/ml puromycin (Invitrogen) was added to Ba/F3 cell lines in complete RPMI. To select for EGFR positive cell lines, cells were stained with PE-EGFR (Biolegend) and sorted by FACS. After sorting, EGFR positive cells were maintained in RPMI containing 10% FBS, 1% penicillin/streptomycin, and 1 ng/ml EGF to support cell viability. […] Shortly, cells were plated in 384-well plates (Greiner Bio-One) at 2000-3000 cells per well in technical triplicate. Seven different concentrations of TKIs or DMSO vehicle were added to reach a final volume of 40 μL per well. After 72 hours, 11 μL of Cell Titer Glo (Promega) was added to each well. Plates were incubated for a minimum of 10 minutes, and bioluminescence was determined using a FLUOstar OPTIMA plate reader (BMG LABTECH). Raw bioluminescence values were normalized to DMSO control treated cells, and values were plotted in GraphPad Prism. […] Drug screens were performed in technical triplicate on each plate and either duplicate or triplicate biological replicates.

EGFR Ex19del = molecular target: T3, EGFR Ex19del (Homo sapiens, UniProt P00533, DEL746-750); details: Classical-Like, 72 hours
T3 construct: expressed in transfected cells; host or cells: Ba/F3 cells, retroviral pBabe-Puro vector

EGFR L858R = molecular target: T4, EGFR L858R (Homo sapiens, UniProt P00533, L858R); details: Classical-Like, 72 hours
T4 construct: expressed in transfected cells; host or cells: Ba/F3 cells, retroviral pBabe-Puro vector
Description: as §1, §2, §3

EGFR L858R S784F = molecular target: T5, EGFR L858R S784F (Homo sapiens, UniProt P00533, L858R/S784F); details: Classical-Like, 72 hours
T5 construct: expressed in transfected cells; host or cells: Ba/F3 cells, retroviral pBabe-Puro vector (vector made by GeneScript from EGFR L858R)

EGFR A767insASV = molecular target: T6, EGFR A767insASV (Homo sapiens, UniProt P00533, DUP767-769); details: Ex20, 72 hours
T6 construct: expressed in transfected cells; host or cells: Ba/F3 cells, retroviral pBabe-Puro vector
Description: (§4) Data represent the ratio of the IC50 value for a given TKI for cells with an ex20ins EGFR mutation to the IC50 value for cells with wildtype EGFR.
as §2
(§5) After 48-72 hours of transduction, 2 μg/ml puromycin (Invitrogen) was added to Ba/F3 cell lines in complete RPMI. To select for EGFR positive cell lines, cells were stained with PE-EGFR (Biolegend) and sorted by FACS. After sorting, EGFR positive cells were maintained in RPMI containing 10% FBS, 1% penicillin/streptomycin, and 1 ng/ml EGF to support cell viability. Drug screening was performed as previously described^41,42. Shortly, cells were plated in 384-well plates (Greiner Bio-One) at 2000-3000 cells per well in technical triplicate. Seven different concentrations of TKIs or DMSO vehicle were added to reach a final volume of 40 μL per well. After 72 hours, 11 μL of Cell Titer Glo (Promega) was added to each well. Plates were incubated for a minimum of 10 minutes, and bioluminescence was determined using a FLUOstar OPTIMA plate reader (BMG LABTECH). Raw bioluminescence values were normalized to DMSO control treated cells, and values were plotted in GraphPad Prism. […] Drug screens were performed in technical triplicate on each plate and either duplicate or triplicate biological replicates. […] Statistical differences between groups were determined by ANOVA as described in the figure legends.

EGFR S768dupSVD V769M = molecular target: T7, EGFR S768dupSVD V769M (Homo sapiens, UniProt P00533, INS768MDS/V769M); details: Ex20, 72 hours
T7 construct: expressed in transfected cells; host or cells: Ba/F3 cells, retroviral pBabe-Puro vector (vector made by GeneScript from EGFR S768dupSVD, c.2305G > A)
Description: as §4, §2, §5

EGFR H773insNPH = molecular target: T8, EGFR H773insNPH (Homo sapiens, UniProt P00533, INS773NPH); details: Ex20, 72 hours
T8 construct: expressed in transfected cells; host or cells: Ba/F3 cells, retroviral pBabe-Puro vector

[1] = molecular target: T9, EGFR L747_K754del insATSPE (Homo sapiens, UniProt P00533, DEL747-749/K754E); details: T790M-like-3S, 72 hours
T9 construct: expressed in transfected cells; host or cells: Ba/F3 cells, retroviral pBabe-Puro vector

EGFR L858R/T790M = molecular target: T10, EGFR L858R/T790M (Homo sapiens, UniProt P00533, L858R/T790M); details: T790M-like-3S, 72 hours
T10 construct: expressed in transfected cells; host or cells: Ba/F3

EGFR G719A T790M = molecular target: T11, EGFR G719A T790M (Homo sapiens, UniProt P00533, G719A/T790M); details: T790M-like-3S, 72 hours
T11 construct: expressed in transfected cells; host or cells: Ba/F3

EGFR G719S T790M = molecular target: T12, EGFR G719S T790M (Homo sapiens, UniProt P00533, G719S/T790M); details: T790M-like-3S, 72 hours
T12 construct: expressed in transfected cells; host or cells: Ba/F3
Description: (§6) Data represent the ratio of the IC50 value for a given TKI for cells with a T790M-like-3S EGFR mutation to the IC50 value for cells with wildtype EGFR.
as §2
(§7) After 48-72 hours of transduction, 2 μg/ml puromycin (Invitrogen) was added to Ba/F3 cell lines in complete RPMI. To select for EGFR positive cell lines, cells were stained with PE-EGFR (Biolegend) and sorted by FACS. After sorting, EGFR positive cells were maintained in RPMI containing 10% FBS, 1% penicillin/streptomycin, and 1 ng/ml EGF to support cell viability. Drug screening was performed as previously described^41,42. Shortly, cells were plated in 384-well plates (Greiner Bio-One) at 2000-3000 cells per well in technical triplicate. Seven different concentrations of TKIs or DMSO vehicle were added to reach a final volume of 40 μL per well. After 72 hours, 11 μL of Cell Titer Glo (Promega) was added to each well. Plates were incubated for a minimum of 10 minutes, and bioluminescence was determined using a FLUOstar OPTIMA plate reader (BMG LABTECH). Raw bioluminescence values were normalized to DMSO control treated cells, and values were plotted in GraphPad Prism. […] Drug screens were performed in technical triplicate on each plate and either duplicate or triplicate biological replicates.

EGFR S768I/T790M = molecular target: T13, EGFR S768I/T790M (Homo sapiens, UniProt P00533, S768I/T790M); details: T790M-like-3S, 72 hours
T13 construct: expressed in transfected cells; host or cells: Ba/F3
Description: as §6, §2, §7

EGFR Ex19del/T790M/G724S = molecular target: T14, EGFR Ex19del/T790M/G724S (Homo sapiens, UniProt P00533, DEL746-750/G724S/T790M); details: T790M-like-3S, 72 hours
T14 construct: expressed in transfected cells; host or cells: Ba/F3

EGFR G724S T790M = molecular target: T15, EGFR G724S T790M (Homo sapiens, UniProt P00533, G724S/T790M); details: T790M-like-3R, 72 hours
T15 construct: expressed in transfected cells; host or cells: Ba/F3
Description: Data represent the ratio of the IC50 value for a given TKI for cells with a T790M-like-3R EGFR mutation to the IC50 value for cells with wildtype EGFR.
as §2
After 48-72 hours of transduction, 2 μg/ml puromycin (Invitrogen) was added to Ba/F3 cell lines in complete RPMI. To select for EGFR positive cell lines, cells were stained with PE-EGFR (Biolegend) and sorted by FACS. After sorting, EGFR positive cells were maintained in RPMI containing 10% FBS, 1% penicillin/streptomycin, and 1 ng/ml EGF to support cell viability. […] Shortly, cells were plated in 384-well plates (Greiner Bio-One) at 2000-3000 cells per well in technical triplicate. Seven different concentrations of TKIs or DMSO vehicle were added to reach a final volume of 40 μL per well. After 72 hours, 11 μL of Cell Titer Glo (Promega) was added to each well. Plates were incubated for a minimum of 10 minutes, and bioluminescence was determined using a FLUOstar OPTIMA plate reader (BMG LABTECH). Raw bioluminescence values were normalized to DMSO control treated cells, and values were plotted in GraphPad Prism. […] Drug screens were performed in technical triplicate on each plate and either duplicate or triplicate biological replicates. […] Statistical differences between groups were determined by ANOVA as described in the figure legends.

EGFR E709_T710del insD = molecular target: T16, EGFR E709_T710del insD (Homo sapiens, UniProt P00533, DEL709-709/T710D); details: PACC; E709_T710del insD; Ba/F3; 72 hours
T16 construct: expressed in transfected cells; host or cells: Ba/F3
Description: (§8) Data represent the ratio of the IC50 value for a given TKI for cells with a PACC EGFR mutation to the IC50 value for cells with wildtype EGFR.
as §2, §7

EGFR E709A G719S = molecular target: T17, EGFR E709A G719S (Homo sapiens, UniProt P00533, E709A/G719S); details: PACC; E709A G719S; Ba/F3; 72 hours
T17 construct: expressed in transfected cells; host or cells: Ba/F3

EGFR E709A = molecular target: T18, EGFR E709A (Homo sapiens, UniProt P00533, E709A); details: PACC; E709A; Ba/F3; 72 hours
T18 construct: expressed in transfected cells; host or cells: Ba/F3

EGFR L718V = molecular target: T19, EGFR L718V (Homo sapiens, UniProt P00533, L718V); details: PACC; L718V; Ba/F3; 72 hours
T19 construct: expressed in transfected cells; host or cells: Ba/F3

EGFR G719A/R776C = molecular target: T20, EGFR G719A/R776C (Homo sapiens, UniProt P00533, G719A/R776C); details: PACC; G719A/R776C; Ba/F3; 72 hours
T20 construct: expressed in transfected cells; host or cells: Ba/F3
Description: as §8, §2, §7

EGFR G724S = molecular target: T21, EGFR G724S (Homo sapiens, UniProt P00533, G724S); details: PACC; G724S; Ba/F3; 72 hours
T21 construct: expressed in transfected cells; host or cells: Ba/F3
Description: as §8, §2, §7

EGFR V774M = molecular target: T22, EGFR V774M (Homo sapiens, UniProt P00533, V774M); details: PACC; V774M; Ba/F3; 72 hours
T22 construct: host or cells: Ba/F3

EGFR L858R L718Q = molecular target: T23, EGFR L858R L718Q (Homo sapiens, UniProt P00533, L718Q/L858R); details: PACC; L858R L718Q; Ba/F3; 72 hours
T23 construct: host or cells: Ba/F3

EGFR Ex19del G724S = molecular target: T24, EGFR Ex19del G724S (Homo sapiens, UniProt P00533, DEL746-750/G724S); details: PACC; Ex19del G724S; Ba/F3; 72 hours
T24 construct: expressed in transfected cells; host or cells: Ba/F3
Description: as §8, §2, §7

EGFR L858R/C797S = molecular target: T25, EGFR L858R/C797S (Homo sapiens, UniProt P00533, C797S/L858R); details: PACC; L858R/C797S; Ba/F3; 72 hours
T25 construct: expressed in transfected cells; host or cells: Ba/F3

EGFR Ex19del T854I = molecular target: T26, EGFR Ex19del T854I (Homo sapiens, UniProt P00533, DEL746-750/T854I); details: PACC; Ex19del T854I; Ba/F3; 72 hours
T26 construct: expressed in transfected cells; host or cells: Ba/F3 (retroviral transduction, pBabe-Puro based vectors)

CNC(=O)CN1CCC(Oc2cc3c(Nc4cccc(Cl)c4F)ncnc3cc2OC)CC1 [Sapatinib]
ratio of IC50 for cells with mutant EGFR to IC50 for cells with wildtype EGFR (Mut/WT) (EGFR L833F): 0.006619
ratio of IC50 for cells with mutant EGFR to IC50 for cells with wildtype EGFR (Mut/WT) (EGFR L858R/V834L): 0.001889
ratio of IC50 for cells with mutant EGFR to IC50 for cells with wildtype EGFR (Mut/WT) (EGFR Ex19del): 0.0005535
ratio of IC50 for cells with mutant EGFR to IC50 for cells with wildtype EGFR (Mut/WT) (EGFR L858R): 0.0006817
ratio of IC50 for cells with mutant EGFR to IC50 for cells with wildtype EGFR (Mut/WT) (EGFR L858R S784F): 0.06664
ratio of IC50 for cells with mutant EGFR to IC50 for cells with wildtype EGFR (Mut/WT) (EGFR A767insASV): 2.233
ratio of IC50 for cells with mutant EGFR to IC50 for cells with wildtype EGFR (Mut/WT) (EGFR S768dupSVD V769M): 1.596
ratio of IC50 for cells with mutant EGFR to IC50 for cells with wildtype EGFR (Mut/WT) (EGFR H773insNPH): 1.265
ratio of IC50 for cells with mutant EGFR to IC50 for cells with wildtype EGFR (Mut/WT) [1]: 7.978
ratio of IC50 for cells with mutant EGFR to IC50 for cells with wildtype EGFR (Mut/WT) (EGFR L858R/T790M): 38.86
ratio of IC50 for cells with mutant EGFR to IC50 for cells with wildtype EGFR (Mut/WT) (EGFR G719A T790M): 54.78
ratio of IC50 for cells with mutant EGFR to IC50 for cells with wildtype EGFR (Mut/WT) (EGFR G719S T790M): 54.78
ratio of IC50 for cells with mutant EGFR to IC50 for cells with wildtype EGFR (Mut/WT) (EGFR S768I/T790M): 54.78
ratio of IC50 for cells with mutant EGFR to IC50 for cells with wildtype EGFR (Mut/WT) (EGFR Ex19del/T790M/G724S): 26.15
ratio of IC50 for cells with mutant EGFR to IC50 for cells with wildtype EGFR (Mut/WT) (EGFR G724S T790M): 48.62
ratio of IC50 for cells with mutant EGFR to IC50 for cells with wildtype EGFR (Mut/WT) (EGFR E709_T710del insD): 1.754
ratio of IC50 for cells with mutant EGFR to IC50 for cells with wildtype EGFR (Mut/WT) (EGFR E709A G719S): 0.02227
ratio of IC50 for cells with mutant EGFR to IC50 for cells with wildtype EGFR (Mut/WT) (EGFR E709A): 0.3243
ratio of IC50 for cells with mutant EGFR to IC50 for cells with wildtype EGFR (Mut/WT) (EGFR L718V): 1.264
ratio of IC50 for cells with mutant EGFR to IC50 for cells with wildtype EGFR (Mut/WT) (EGFR G719A/R776C): 0.0489
ratio of IC50 for cells with mutant EGFR to IC50 for cells with wildtype EGFR (Mut/WT) (EGFR G724S): 0.141
ratio of IC50 for cells with mutant EGFR to IC50 for cells with wildtype EGFR (Mut/WT) (EGFR V774M): 0.05575
ratio of IC50 for cells with mutant EGFR to IC50 for cells with wildtype EGFR (Mut/WT) (EGFR L858R L718Q): 0.1961
ratio of IC50 for cells with mutant EGFR to IC50 for cells with wildtype EGFR (Mut/WT) (EGFR Ex19del G724S): 27.39
ratio of IC50 for cells with mutant EGFR to IC50 for cells with wildtype EGFR (Mut/WT) (EGFR L858R/C797S): 0.001101
ratio of IC50 for cells with mutant EGFR to IC50 for cells with wildtype EGFR (Mut/WT) (EGFR Ex19del T854I): 0.2548
